What was measured:
[1] = tested on: K562 cells; test: DNA content analysis by FACS of propidium iodide staining; format: cell-based; conditions: 20 μM methotrexate, 48 hours, vs DMSO, FIG. 34
[2] = tested on: NF-kβ signaling pathway; test: Western blotting of NFκB signalling pathway members; format: cell-based; conditions: K562 cells, 20 μM methotrexate 48 hours, presence and absence of TNF; FIG. 16A
Protocol: Cells were washed with DPBS (without calcium and magnesium) once, then lysed in TOTEX Buffer (20 mM Hepes at pH 7.9, 0.35M NaCl, 20% Glycerol, 1% NP-40, 1 mM MgCl2, 0.1 mM EGTA) including 50 mM NaF, 0.3 mM […] and protease inhibitor cocktail. Supernatant including proteins was collected, followed by centrifugation at full speed for 20 minutes. Western blotting was performed by following standard procedures using the following antibodies: Rabbit Anti-phospho-IKKα/β (S180/181) (1:1,000; Bioworld Technology, BS5082), Rabbit Anti-phospho-IKBα (S32) (1:1,000; Cell Signalling Technology, 2859), Rabbit Anti-IKBα (1:1,000; Santa Cruz Biotechnology, sc-371), Rabbit Anti-phospho-p65 ([…]) (1:1,000; Cell Signalling Technology, 3031), Mouse Anti-HSP90 (1:1,000; BD, 610419), Goat Anti-Rabbit IgG-HRP (1:5,000; Santa Cruz Biotechnology, sc-2054) and Goat Anti-Mouse IgG-HRP (1:5,000; Santa Cruz Biotechnology, sc-2005).

CN(Cc1cnc2nc(N)nc(N)c2n1)c1ccc(C(=O)N[C@@H](CCC(=O)O)C(=O)O)cc1 [methotrexate]
cell cycle state of K562 cells [1]: arrested in the S phase | activation of the NF-kβ signaling pathway [2]: suppressing activation | phosphorylation of IKKα/β complex, IκBα and p65 [2]: inhibiting phosphorylation
